Assays:
HEL = test: Antiproliferative activity against human HEL cells measured after 72 hrs by CCK-8 assay; format: functional, cell-based
SU-DHL-2 = test: Antiproliferative activity against human SU-DHL-2 cells measured after 72 hrs by CCK-8 assay; format: functional, cell-based; settings: SU-DHL-2, 72 h
MV4-11 = test: Antiproliferative activity against human MV4-11 cells measured after 72 hrs by CCK-8 assay; format: functional, cell-based; settings: MV4-11, 72 h
K562 = test: Antiproliferative activity against human K562 cells measured after 72 hrs by CCK-8 assay; format: functional, cell-based; settings: K562, 72 h
WSUDLCL2 [1] = test: Antiproliferative activity against human WSUDLCL2 cells measured after 72 hrs by CCK-8 assay; format: functional, cell-based; settings: WSUDLCL2, 72 h
WSUDLCL2 [2] = test: Antitumor activity against human WSUDLCL2 cells xenografted in mouse assessed as tumor growth inhibition at 50 mg/kg, ip administered for 21 days; format: functional; settings: WSUDLCL2, 504 h, time 21 day, read-out: TGI
NCI-H23 = test: Antiproliferative activity against human NCI-H23 cells incubated for 48 hrs by colorimetric method; format: functional, cell-based; settings: NCI-H23, 48 h
HOS = test: Antiproliferative activity against human HOS cells; format: functional
SW-620 [3] = test: Antiproliferative activity against human SW620 cells incubated for 48 hrs by colorimetric method; format: functional, cell-based; settings: SW-620, 48 h
SAOS-2 = test: Antiproliferative activity against human SAOS-2 cells; format: functional
143B = test: Antiproliferative activity against human 143B cells; format: functional
PC-3 [4] = test: Antiproliferative activity against human PC-3 cells incubated for 48 hrs by colorimetric method; format: functional, cell-based; settings: PC-3, 48 h
HL-60 = test: cells; format: functional, cell-based; settings: Homo sapiens, HL-60, 72 h
[5] = Cytotoxicity against human CCC-HEL-1 cells assessed as inhibition of cell growth incubated for 72 hrs by MTT assay; format: toxicity, cell-based
[6] = Cytotoxicity against rat H9c2 cells assessed as inhibition of cell growth incubated for 72 hrs by MTT assay; format: toxicity, cell-based
A549 [7] = test: Antitumor activity against human A549 cells xenografted in zebrafish model assessed as inhibition of cell proliferation incubated for 5 days by fluorescence microscopic analysis; format: functional, cell-based; settings: A549, 120 h
HepG2 = test: cells; format: functional, cell-based; settings: Homo sapiens, HepG2, 72 h
Histone deacetylase 3 = Histone deacetylase 3 (Homo sapiens, UniProt O15379); test: Inhibition of HDAC3 (unknown origin) incubated for 30 mins by fluorescence based microplate reader analysis
Sequence of Histone deacetylase 3 (O15379 whole entry): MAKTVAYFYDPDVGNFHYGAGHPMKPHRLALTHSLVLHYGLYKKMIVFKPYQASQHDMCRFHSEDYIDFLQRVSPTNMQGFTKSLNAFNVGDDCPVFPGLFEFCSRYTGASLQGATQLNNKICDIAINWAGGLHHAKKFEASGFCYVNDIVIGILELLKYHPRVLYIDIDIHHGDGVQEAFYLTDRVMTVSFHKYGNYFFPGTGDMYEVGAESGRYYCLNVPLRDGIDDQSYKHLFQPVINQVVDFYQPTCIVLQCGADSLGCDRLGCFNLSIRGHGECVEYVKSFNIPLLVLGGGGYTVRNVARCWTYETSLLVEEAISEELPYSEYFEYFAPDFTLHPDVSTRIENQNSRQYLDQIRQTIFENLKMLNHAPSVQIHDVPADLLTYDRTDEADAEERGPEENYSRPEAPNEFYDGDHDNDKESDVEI

TPC1 = test: cells; format: functional, cell-based; settings: Homo sapiens, TPC1, 72 h
[8] = molecular target: T1, Protein deacetylase HDAC6 (Homo sapiens, UniProt Q9UBN7); test: Inhibition of HDAC6 (unknown origin) incubated for 30 mins by fluorescence based microplate reader analysis
T1 sequence (Q9UBN7 whole entry): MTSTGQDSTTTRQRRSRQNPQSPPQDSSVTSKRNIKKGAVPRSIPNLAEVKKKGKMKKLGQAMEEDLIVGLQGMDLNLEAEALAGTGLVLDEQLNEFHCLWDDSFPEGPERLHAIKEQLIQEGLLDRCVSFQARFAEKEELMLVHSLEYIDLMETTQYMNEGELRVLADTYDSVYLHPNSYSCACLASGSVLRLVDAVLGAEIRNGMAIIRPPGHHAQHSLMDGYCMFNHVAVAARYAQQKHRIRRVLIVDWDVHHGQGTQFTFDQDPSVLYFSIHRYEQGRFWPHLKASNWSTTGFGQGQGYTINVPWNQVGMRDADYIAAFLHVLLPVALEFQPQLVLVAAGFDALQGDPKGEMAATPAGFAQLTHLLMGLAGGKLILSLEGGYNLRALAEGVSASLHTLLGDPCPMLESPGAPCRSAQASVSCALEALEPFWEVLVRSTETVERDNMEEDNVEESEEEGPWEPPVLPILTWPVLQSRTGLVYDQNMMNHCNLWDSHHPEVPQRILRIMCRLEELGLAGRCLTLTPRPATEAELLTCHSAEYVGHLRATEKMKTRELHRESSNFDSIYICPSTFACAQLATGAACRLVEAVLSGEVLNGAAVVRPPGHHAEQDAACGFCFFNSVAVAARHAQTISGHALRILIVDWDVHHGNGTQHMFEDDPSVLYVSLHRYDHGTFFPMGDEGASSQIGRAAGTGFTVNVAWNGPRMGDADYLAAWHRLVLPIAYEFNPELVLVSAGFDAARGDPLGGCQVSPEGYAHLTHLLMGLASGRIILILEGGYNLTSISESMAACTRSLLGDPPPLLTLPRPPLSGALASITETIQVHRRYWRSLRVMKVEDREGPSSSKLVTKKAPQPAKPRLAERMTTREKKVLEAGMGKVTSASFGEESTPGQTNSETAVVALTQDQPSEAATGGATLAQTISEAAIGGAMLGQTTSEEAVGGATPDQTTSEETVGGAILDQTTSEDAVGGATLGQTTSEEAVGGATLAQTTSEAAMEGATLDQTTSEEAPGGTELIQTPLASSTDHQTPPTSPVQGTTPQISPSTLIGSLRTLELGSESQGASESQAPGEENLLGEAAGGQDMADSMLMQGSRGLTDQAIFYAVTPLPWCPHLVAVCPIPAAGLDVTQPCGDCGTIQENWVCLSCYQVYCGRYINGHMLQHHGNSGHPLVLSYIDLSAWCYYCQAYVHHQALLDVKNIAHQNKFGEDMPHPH

Histone deacetylase 2 [9] = molecular target: T2, Histone deacetylase 2 (Homo sapiens, UniProt Q92769); test: Inhibition of HDAC2 (unknown origin) incubated for 30 mins by fluorescence based microplate reader analysis
T2 sequence (Q92769 whole entry): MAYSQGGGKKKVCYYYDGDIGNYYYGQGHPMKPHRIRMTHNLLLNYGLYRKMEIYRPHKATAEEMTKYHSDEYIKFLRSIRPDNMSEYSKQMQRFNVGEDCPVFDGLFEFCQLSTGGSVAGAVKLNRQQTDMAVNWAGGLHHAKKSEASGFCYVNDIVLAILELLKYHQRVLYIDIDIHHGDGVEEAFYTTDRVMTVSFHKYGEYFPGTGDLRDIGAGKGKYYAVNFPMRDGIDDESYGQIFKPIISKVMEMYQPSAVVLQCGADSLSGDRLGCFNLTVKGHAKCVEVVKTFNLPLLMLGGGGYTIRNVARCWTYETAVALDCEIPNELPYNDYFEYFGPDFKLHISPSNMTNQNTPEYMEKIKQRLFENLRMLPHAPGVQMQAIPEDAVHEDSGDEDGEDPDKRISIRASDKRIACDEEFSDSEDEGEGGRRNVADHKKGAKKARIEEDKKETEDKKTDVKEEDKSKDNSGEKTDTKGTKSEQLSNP

HGC-27 = test: cells; format: functional, cell-based; settings: Homo sapiens, HGC-27, 72 h
Raji = test: cells; format: functional, cell-based; settings: Homo sapiens, 72 h
KYSE-30 = test: cells; format: functional, cell-based; settings: Homo sapiens, KYSE-30, 72 h
A549 [10] = test: cells; format: functional, cell-based; settings: Homo sapiens, A549, 72 h
MDA-MB-231 [11] = test: Antitumor activity against human MDA-MB-231 cells xenografted in BALB/c nude mouse assessed as tumor growth inhibition by measuring test to control ratio at 30 mg/kg/day, po measured every 3 days for 22 days relative to control; format: functional; settings: time 22 day
MDA-MB-231 [12] = test: Antitumor activity against human MDA-MB-231 cells xenografted in BALB/c nude mouse assessed as tumor growth inhibition at 30 mg/kg/day, po measured every 3 days for 22 days relative to control; format: functional; settings: MDA-MB-231, 528 h, time 22 day, read-out: TGI
[13] = Metabolic stability in human liver microsomes assessed as half life by LC-MS/MS analysis; format: ADME, Microsome
[14] = Metabolic stability in human plasma assessed as half life by LC-MS/MS analysis; format: ADME, cell-free
MM96L = test: Antiproliferative activity against human MM96L cells; format: functional, cell-based
A549 [15] = test: Antiproliferative activity against human A549 cells
HT-29 = test: Antiproliferative activity against human HT-29 cells; format: functional, cell-based
MDA-MB-231 [16] = test: Antiproliferative activity against human MDA-MB-231 cells
[17] = Cytotoxicity against human NFF cells; format: toxicity, cell-based
Histone deacetylase 2 [18] = molecular target: T2, Histone deacetylase 2; test: Inhibition of HDAC2 (unknown origin)
HeLa = test: Antiproliferative activity against human HeLa cells; format: functional, cell-based
PC-3 [19] = test: Antiproliferative activity against human PC-3 cells; format: functional, cell-based
[20] = molecular target: T1, Protein deacetylase HDAC6; test: Inhibition of HDAC6 (unknown origin)
SW-620 [21] = test: Antiproliferative activity against human SW620 cells; format: functional, cell-based
Histone deacetylase 1 = Histone deacetylase 1 (Homo sapiens, UniProt Q13547); test: Inhibition of HDAC1 (unknown origin) preincubated for 10 mins followed by substrate addition and measured after 30 mins by fluorescence based microplate reader analysis
Sequence of Histone deacetylase 1 (Q13547 whole entry): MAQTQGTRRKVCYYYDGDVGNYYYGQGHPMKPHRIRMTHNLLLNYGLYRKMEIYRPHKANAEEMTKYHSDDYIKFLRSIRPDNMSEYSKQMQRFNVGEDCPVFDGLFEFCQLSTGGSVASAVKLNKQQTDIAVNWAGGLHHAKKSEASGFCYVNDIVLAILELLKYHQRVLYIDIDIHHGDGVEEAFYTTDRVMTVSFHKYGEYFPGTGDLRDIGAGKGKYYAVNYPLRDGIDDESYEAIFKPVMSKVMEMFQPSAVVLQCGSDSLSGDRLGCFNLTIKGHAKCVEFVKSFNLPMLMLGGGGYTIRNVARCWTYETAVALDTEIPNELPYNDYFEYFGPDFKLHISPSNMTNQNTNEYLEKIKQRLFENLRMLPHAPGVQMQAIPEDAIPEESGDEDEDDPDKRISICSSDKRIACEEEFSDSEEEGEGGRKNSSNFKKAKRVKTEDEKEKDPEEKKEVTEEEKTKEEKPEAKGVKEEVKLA

C=C[C@@]1(C)CC[C@H](C(=C)CN2CCN(C(=O)CCCCCCC(=O)NO)CC2)C[C@@H]1C(=C)Cn1cccn1
IC50 (HEL): 790 nM | IC50 (SU-DHL-2): 790 nM | IC50 (MV4-11): 790 nM | IC50 (K562): 790 nM | IC50 (WSUDLCL2 [1]): 790 nM | inhibition in vivo at 50 mg/kg (WSUDLCL2 [2]): 31.5%

O=C(/C=C/c1cccc(S(=O)(=O)Nc2ccccc2)c1)NO [BELINOSTAT]
IC50 (NCI-H23): 2530 nM | GI50 (HOS): 3300 nM | IC50 (SW-620 [3]): 2530 nM | GI50 (SAOS-2): 3300 nM | GI50 (143B): 3300 nM | IC50 (PC-3 [4]): 2530 nM

O=C(CCCCCCC(=O)Nc1nc2c(s1)C[C@@H](NC(=O)c1cccc3ccccc13)CC2)NO
IC50 (HL-60): 1220 nM | IC50 at 72 h [5]: 24400 nM | IC50 at 72 h [6]: 43800 nM | IC50 (A549 [7]): 1500 nM | IC50 (HepG2): 1220 nM | IC50 (Histone deacetylase 3): 1.4 nM | IC50 (TPC1): 1220 nM | IC50 [8]: 1.4 nM | IC50 (Histone deacetylase 2 [9]): 1.4 nM | IC50 (HGC-27): 1220 nM | IC50 (Raji): 1220 nM | IC50 (KYSE-30): 1220 nM | IC50 (A549 [10]): 1220 nM

O=C(CCCCCCC(=O)Nc1nc2ccc(OC(F)(F)F)cc2s1)NO
T/C (MDA-MB-231 [11]): 55% | inhibition in vivo at 30 mg/kg/day (MDA-MB-231 [12]): 59% | half-life [13]: 56 min | half-life [14]: > 120 min

O=C(NO)c1ccc(NC(=O)C2(c3ccc(-c4cn[nH]c4)cc3)CCCCC2)cc1
IC50 (MM96L): 50 nM | IC50 (A549 [15]): 50 nM | IC50 (HT-29): 50 nM | IC50 (MDA-MB-231 [16]): 50 nM | IC50 [17]: 50 nM | IC50 (Histone deacetylase 2 [18]): 2 nM | IC50 (HeLa): 50 nM

O=C(/C=C/c1ccc2nn(Cc3ccc(Cl)cc3)cc2c1)NO
IC50 (MDA-MB-231 [16]): 196 nM | IC50 (PC-3 [19]): 196 nM | IC50 [20]: 231 nM | IC50 (SW-620 [21]): 196 nM

C=C[C@]1(C)CC[C@@H](C(=C)Cn2cccn2)C[C@H]1C(=C)CN1CCN(C(=O)CCCCCCC(=O)NO)CC1
IC50 (HEL): 1000 nM | IC50 (SU-DHL-2): 1000 nM | IC50 (MV4-11): 1000 nM | IC50 (Histone deacetylase 1): 8 nM | IC50 (K562): 1000 nM | IC50 (WSUDLCL2 [1]): 1000 nM

From ChEMBL document CHEMBL5614367, “Hydroxamic acid hybrids: Histone deacetylase inhibitors with anticancer therapeutic potency” (Eur J Med Chem, 2023)
